In the NIST ThermoML archive (doi:10.1021/je900468u):

Columns and labels:
[1] = refractive index (Na D-line) (dimensionless); xn = mol fraction of the nth substance listed; settings: 101 kPa, Liquid, Standard Abbe refractometry
[2] = xn = mol fraction of the nth substance listed; settings: 101 kPa, Liquid; for speed of sound: Pulse-echo method

c1ccccc1 [benzene] + C1CCCCC1
x2 = 0
Settings | mass density, [2] [kg/m3] | refractive index, [1] | speed of sound, [2] [m/s]
283.15 K | 889.5 | 1.50765 | 1371
298.15 K | 873.9 | 1.49774 | 1299

c1ccccc1 [benzene] + C1CCCCCCC1
298.15 K, x2 = 0
Settings | mass density [kg/m3] | refractive index | speed of sound [m/s]
[1] | – | 1.49774 | –
[2] | 873.6 | – | 1299

c1ccccc1 [benzene] + CC1CCCCC1
x2 = 0
Settings | mass density, [2] [kg/m3] | refractive index, [1] | speed of sound, [2] [m/s]
283.15 K | 889.5 | 1.50765 | 1371
298.15 K | 873.6 | 1.49774 | 1299

C1CCCCC1 [cyclohexane] + CCc1ccccc1
x1 = 1
Settings | mass density, [2] [kg/m3] | refractive index, [1] | speed of sound, [2] [m/s]
283.15 K | 787.8 | 1.43193 | 1329
298.15 K | 773.9 | 1.4236 | 1255

C1CCCCC1 [cyclohexane] + Cc1ccccc1
Settings | mass density, [2] [kg/m3] | refractive index, [1] | speed of sound, [2] [m/s]
283.15 K, x1 = 0.0484 | 871 | 1.4988 | 1365
283.15 K, x1 = 0.099 | 865.8 | 1.49476 | 1360
283.15 K, x1 = 0.1997 | 855.8 | 1.48684 | 1351
283.15 K, x1 = 0.2973 | 846.1 | 1.47919 | 1344
283.15 K, x1 = 0.3975 | 836.6 | 1.47167 | 1337
283.15 K, x1 = 0.4999 | 827.3 | 1.46416 | 1331
283.15 K, x1 = 0.5881 | 819.6 | 1.45803 | 1328
283.15 K, x1 = 0.699 | 810.3 | 1.45054 | 1325
283.15 K, x1 = 0.7985 | 802.4 | 1.44407 | 1324
283.15 K, x1 = 0.8961 | 795.1 | 1.43794 | 1325
283.15 K, x1 = 0.9497 | 791.3 | 1.43489 | 1327
283.15 K, x1 = 1 | – | – | 1329
298.15 K, x1 = 0.0484 | 857.2 | 1.49021 | 1300
298.15 K, x1 = 0.099 | 852 | 1.48614 | 1294
298.15 K, x1 = 0.1997 | 842 | 1.47829 | 1285
298.15 K, x1 = 0.2973 | 832.3 | 1.47073 | 1276
298.15 K, x1 = 0.3975 | 822.8 | 1.4632 | 1269
298.15 K, x1 = 0.4999 | 813.4 | 1.4558 | 1263
298.15 K, x1 = 0.5881 | 805.7 | 1.44964 | 1258
298.15 K, x1 = 0.699 | 796.4 | 1.44216 | 1254
298.15 K, x1 = 0.7985 | 788.4 | 1.4358 | 1252
298.15 K, x1 = 0.8961 | 781.1 | 1.42971 | 1252
298.15 K, x1 = 0.9497 | 777.4 | 1.42663 | 1253
298.15 K, x1 = 1 | 773.9 | 1.4236 | 1255
